In patent US8273775B2, “Non-steroidal brassinosteroid mimetic” (priority 2006, dated 2012):

Assays:
[1] = tested on: bri1-116, bri1-301 mutants; experiment: Phenotype rescue of BR perception (receptor) mutants; type: in vivo, Arabidopsis thaliana; settings: for phenotype rescue of bri1-116 mutant: day 5 to day 11 on 1 μM BL or 30 μM ABRASIN; for rescue of dwarfed phenotype: light-grown, abrasin 50 μM or BL 1 μM
Experimental: (§1) FIG. 5: Effect of brassinolide (BL) and abrasin (I5) treatment on mutants. WT or mutant plants were grown under standard conditions on agar plates. After 3 days of germination, plants were transferred to agar plates containing abrasin at a concentration of 50 μM or BL at a concentration of 1 μM.
(§2) For further phenotypical analysis, all plants were grown on vertically oriented square plates (Greiner Labortechnik, Austria) with solid medium derived from standard Murashige and Skoog medium under the same conditions. For the hypocotyl-elongation assay, plants were grown in the dark at 22° C. under the same conditions.
(§3) Col-0, the null BR signaling bri1-116 (Friedrichsen et al., 2000) and BR biosynthetic cpd (Szekeres et al., 1996) mutants were subjected to phenotype rescue analysis by treatments with BL and ABRASIN. As a negative control, dimethylsulfoxide (DMSO) was used. Plants were germinated in vitro for 5 days on ½ MS containing DMSO medium and from day 6th to day 11th they were transferred on medium supplemented with BL (10 nM, 100 nM, 1000 nM), ABRASIN (5 μM, 10 μM, 30 μM) or DMSO. Cotyledons and leaves were collected for flowcytometric analysis at the 11th day (i.e. 6 days of treatments). Samples for β-glucuronidase (GUS) assay were taken on day 6th (i.e. 1 day treatments), 8th (i.e. 3 days treatments), 10th (i.e. 5 days treatments). Rescue of soil-grown mutants at different growth stages was checked by watering bri1-116 and cpd mutants with either BL or 2 ml 300 μM ABRASIN per day.

bri1-116 and cpd mutants = experiment: Flowcytometric analysis of DNA content of cotyledons and leaves; type: in vivo, Arabidopsis; settings: 6 days of treatments
Experimental: FIG. 16: Rescue of bri1-116 and cpd mutants grown on different concentrations of ABRASIN and BL. The plants were germinated on MS+DMSO medium till day 5 and afterwards transferred on MS supplemented with the respective concentration of ABRASIN and BL for 6 more days. Flowcytometric analysis of cotyledons and leaves was performed at the last day of treatments. (A.) Rescue of bri1-116 mutants by ABRASIN. Increasing the ABRASIN concentration promotes cell division activation. (B.) Rescue of cpd mutants by ABRASIN. Increasing the ABRASIN concentration promotes cell division activation. (C.) Rescue of cpd mutants by BL. Both cell division and endoreduplication take place in the BL rescue strategy. BL: brassinolide; BIK: abrasin.
as §3
Samples for flow cytometric analysis were collected and analyzed as described earlier (De Veylder et al., 2001)

cpd, det2-1 mutants = experiment: Phenotype rescue of BR-biosynthesis mutants; type: in vivo, Arabidopsis thaliana; settings: for phenotype rescue of cpd mutant: day 5 to day 11 on 1 μM BL or 30 μM ABRASIN; for rescue of dwarfed phenotype: light-grown, abrasin 50 μM or BL 1 μM
Experimental: as §1, §2, §3

[2] = tested on: BES1 protein in 35S:BES1:GFP plants; experiment: Western blot analysis of BES1 phosphorylation state; type: in vivo, Arabidopsis thaliana
Experimental: FIG. 8: A: Western Blot analysis of the BES1 protein in 35S:BES1:GFP plants treated with BL and abrasin (indicated as I5 throughout the figure) (A); MG132 with BL or abrasin (B); a time course with abrasin (C) and a concentration gradient with abrasin (D). B: Abrasin and BL induce similar transcriptional regulation of the BR pathway.
For protein extraction, six-day-old seedlings were grown under standard conditions as described earlier on solid medium. Plants were next soaked in liquid MS-medium supplemented with the indicated compounds (concentrations and time periods as indicated in figures). Subsequently, plants were frozen in liquid nitrogen, ground and homogenized in ice-cold homogenization buffer (25 mM Tris-HCl (pH 8), 5 mM EDTA, 1 mM β-Mercapto-ethanol, 15 mM MgCl—2, 85 mM NaCl, 0.1% Tween 20, 1 protease inhibitor tablet/50 ml, Complete (Roche diagnostics, Belgium)). The homogenate was centrifuged twice (5 min, 14.000 rpm, 4° C.) in an Eppendorf Centrifuge 5417. Loading buffer was added, the samples were heated for 10 min at 95° C. and centrifuged. The samples were separated on a 12% acrylamide gel or a 4-20% gradient pre-cast gel (Bio-Rad) and blotted on nitrocellulose membranes (Hybond-C super, GE-Biosciences, UK) in 190 mM glycine and 25 mM Tris-Hcl using a mini-blotting system (Bio-Rad, USA) for 1 h. Membranes were blocked overnight at 4° C. in phosphate buffer with 0.1% Tween 20 and 5% skim milk (BD Difco, USA). For immunodetection, anti-BES1 antibodies at 1:2000 dilution and anti-GFP antibodies at 1:1000 dilution were used as primary antibody. As secondary antibody, anti-rat and anti-rabbit were used at 1:10.000 dilution. The proteins were detected by chemiluminescence (Perkin-Elmer, USA).

[3] = tested on: DR5, CYCB1;1 and CDKB1;1 promoters fused to GUS; experiment: GUS assay of promoter-reporter markers in first leaf; type: in vivo, Arabidopsis; settings: for CDKB1;1-GUS expression: 30 μM ABRASIN or 1 μM BL, days 8 and 10
Experimental: FIG. 17: Investigation of differences in the rescue strategy of bri1-116 and cpd mutants treated with ABRASIN (30 μM) or BL (1 μM). The activation of markers for auxin response (DR5) and cell division (CYCB1; 1 and CDKB1; 1) was followed by localization of their promoters fused to β-glucuronidase (GUS) reporter gene. […] Samples for GUS assay were taken on day 6th (i.e. 1 day treatment), 8th (i.e. 3 days treatment), 10th (i.e. 5 days treatment). (A.) The effect of ABRASIN on the first leaf of bri1-116 and Col-0 plants—activity localization of DR5, CYCB1; 1 and CDKB1; 1 promoters fused to GUS reporter gene (B.) The effect of ABRASIN on the first leaf of cpd and Col-0 plants—activity localization of CYCB1; 1 and CDKB1; 1 promoters fused to GUS reporter gene. BL: brassinolide; BIK: abrasin.
as §3
GUS staining was carried out by the method described by Jefferson et al. (1987). Images of GUS stained plants were taken with binocular microscope (MZ16, Leica) and Nikon camera.

Row | Structure (SMILES) | phenotype rescue of bri1-116 mutant [1] | rescue of dwarfed phenotype [1] | DNA content distribution of leaves (bri1-116 and cpd mutants) | concentration sufficient to rescue the mutant phenotypes (cpd, det2-1 mutants; 6 days of treatments) [nM] | phenotype rescue of cpd mutant (cpd, det2-1 mutants) | rescue of dwarfed phenotype (cpd, det2-1 mutants) | BES1 phosphorylation state ([2]; addition of BL or MG132) | CDKB1;1-GUS expression [3] | time after treatment at which phenotypic changes were observed ([1]; bri1-116 and cpd mutants, 30 μM ABRASIN) [days] | concentration sufficient to rescue the mutant phenotypes ([1]; bri1-116 and cpd mutants, 6 days of treatments) [µM] | DNA content of cotyledons (bri1-116 and cpd mutants) | total amount of BES1 protein ([2]; abrasin 50 μM) | BES1 phosphorylation state ([2]; abrasin 5 to 10 μM) | time to shift towards the non-phosphorylated BES1 protein ([2]; after addition to the medium) [min] | CYCB1;1 expression (cell division marker) ([3]; 30 μM ABRASIN) | DR5 activity in the leaves ([3]; 1 day of treatment) | DR5 activity / auxin levels in the leaves ([3]; longer treatment)
1 | CC(C)[C@H](C)[C@@H](O)[C@H](O)[C@@H](C)[C@H]1CC[C@H]2[C@@H]3COC(=O)[C@H]4C[C@H](O)[C@H](O)C[C@]4(C)[C@H]3CC[C@]12C [BL, brassinolide, reference compound] | bri1-116 was insensitive and therefore unaffected by BL | but not the bri1 receptor mutants | did not significantly changes the DNA content distribution | 10 | rescued the dwarf statute of the cpd to a wild-type | rescues the cpd and det2-1 mutants | induces more non-phosphorylated protein | induced only stomata specific expression | – | – | – | – | – | – | – | – | –
2 | O=C(O)CCC(=O)Nc1ccc(Br)cn1 [abrasin, 4-[(5-bromo-2-pyridinyl)amino]-4-oxobutanoic acid] | rescued the phenotypes of both bri1-116 and cpd mutants to the wild-type | all mutant lines, including the bri1 receptor mutants, showed an elongated phenotype | significantly increased the 2C and 4C content and completely suppressed the 16C content | – | rescued the phenotypes of both bri1-116 and cpd mutants to the wild-type | all mutant lines, including the bri1 receptor mutants, showed an elongated phenotype | – | activated CDKB1; 1-GUS predominately in the leaf vasculature | 1 | 10 | the values for cotyledons did not differ form the untreated controls | the total amount of BES1 protein is also reduced | a shift towards non-phosphorylated BES1 is observed | ≤ 30 | increased the CYCB1; 1 expression | did not significantly increases the DR5 activity in the leaves | the auxin levels in both bri1-116 and wild type leaves were increased after longer treatment
